This passage reports IC50 results from ChEMBL document CHEMBL1130961, “The development of novel and selective p56lck tyrosine kinase inhibitors” (Bioorg Med Chem Lett, 1998).

As usually defined, the IC50 is the concentration at which inhibition is half-maximal.

Structures are written as SMILES.

Assay [1] deals with Tyrosine-protein kinase Lck (Homo sapiens, UniProt P06239). The assay can be described thus: Inhibition of p56 Lck tyrosine kinase.
The target of assay [2] is cAMP-dependent protein kinase (PKA) (Homo sapiens, UniProt P22694+P17612+P22612). As to the kind of experiment: Inhibition of Protein Kinase A (PKA). The assay is classed as protein assay.
For assay [3], the target named is Proto-oncogene tyrosine-protein kinase Src (Homo sapiens, UniProt P12931). As to the kind of experiment: Inhibition of Src tyrosine kinase.
Proto-oncogene tyrosine-protein kinase Src, sequence (P12931 2-536 limits assumed): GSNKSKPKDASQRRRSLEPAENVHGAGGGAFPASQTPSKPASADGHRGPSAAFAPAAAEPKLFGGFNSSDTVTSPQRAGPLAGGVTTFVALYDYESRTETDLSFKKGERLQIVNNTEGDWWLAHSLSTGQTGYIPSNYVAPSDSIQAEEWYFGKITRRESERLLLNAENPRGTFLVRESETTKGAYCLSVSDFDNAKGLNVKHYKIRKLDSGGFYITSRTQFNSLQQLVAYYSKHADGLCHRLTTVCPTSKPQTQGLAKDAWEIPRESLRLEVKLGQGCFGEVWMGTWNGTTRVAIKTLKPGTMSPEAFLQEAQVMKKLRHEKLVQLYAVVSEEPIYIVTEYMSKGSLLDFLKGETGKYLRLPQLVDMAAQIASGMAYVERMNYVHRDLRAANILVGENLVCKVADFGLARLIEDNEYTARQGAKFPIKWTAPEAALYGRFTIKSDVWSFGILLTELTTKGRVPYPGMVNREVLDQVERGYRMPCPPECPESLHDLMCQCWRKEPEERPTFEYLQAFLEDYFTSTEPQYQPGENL

Tyrosine-protein kinase Lck, sequence (P06239 whole entry): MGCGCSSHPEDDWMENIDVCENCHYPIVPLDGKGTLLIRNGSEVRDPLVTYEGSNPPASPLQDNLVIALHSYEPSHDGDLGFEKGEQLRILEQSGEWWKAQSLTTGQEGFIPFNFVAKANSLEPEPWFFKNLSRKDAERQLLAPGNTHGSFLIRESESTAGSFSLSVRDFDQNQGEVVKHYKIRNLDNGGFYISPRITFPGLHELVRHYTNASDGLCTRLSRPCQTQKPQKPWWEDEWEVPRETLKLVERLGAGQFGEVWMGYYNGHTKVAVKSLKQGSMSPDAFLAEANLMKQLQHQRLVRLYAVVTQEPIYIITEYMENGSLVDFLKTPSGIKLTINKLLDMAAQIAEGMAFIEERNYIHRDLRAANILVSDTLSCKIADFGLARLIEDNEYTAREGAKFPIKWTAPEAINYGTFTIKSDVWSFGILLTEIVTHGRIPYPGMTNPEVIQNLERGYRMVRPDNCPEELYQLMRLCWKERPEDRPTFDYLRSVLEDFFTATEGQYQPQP

`COc1cc(C=C2C(=O)c3cc(Cl)c(Cl)cc3C2=O)cc(Br)c1O` yielded an IC50 in assay [1] of 1.7 µM.
Turning to `COc1cc(C=C2C(=O)c3cc(Cl)c(Cl)cc3C2=O)ccc1O`, the IC50 in assay [1] worked out at 5 µM.
Still for that read-out and setting: the figure for `O=C1/C(=C\c2cc(Br)c(O)c(Br)c2)C(=O)c2cc([N+](=O)[O-])ccc21` is more than 5 µM; for `COc1ccc2c(c1)C(=O)/C(=C/c1cc(Br)c(O)c(OC)c1)C2=O` it is 0.88 µM; for `Nc1ccc2c(c1)C(=O)/C(=C/c1cc(Br)c(O)c(Br)c1)C2` it is 0.71 µM.
On the same count and under the same terms, to `COc1cc2c(cc1OC)C(=O)C(=Cc1cc(Cl)c(O)c(Cl)c1)C2=O` belongs 0.31 µM; to `O=C1/C(=C/c2ccc(O)c(O)c2)C(=O)c2cc([N+](=O)[O-])ccc21`, more than 5 µM.
For `COc1cc(/C=C2\C(=O)c3ccc(N)cc3C2=O)cc(OC)c1O`, in assay [1], the midpoint of inhibition, the IC50, lay at 1.7 µM.
Still for that read-out and setting: to `Nc1ccc2c(c1)C(=O)/C(=C/c1ccc(O)c(O)c1)C2=O` belongs 0.6 µM; to `Nc1cccc2c1C(=O)/C(=C\c1cc(Br)c(O)c(Br)c1)C2=O`, 0.47 µM.
On the same count and under the same terms, the figure for `O=C1/C(=C\c2cc(Br)c(O)c(Br)c2)C(=O)c2cc(Br)ccc21` is 1 µM; for `O=C1C(=Cc2cc(Br)c(O)c(Br)c2)C(=O)c2ccccc21` it is 0.74 µM.
In the case of `COc1ccc2c(c1)C(=O)/C(=C/c1cc(Br)c(O)c(Br)c1)C2=O`, the IC50 in assay [2] was 10 µM; in assay [3], more than 50 µM; in assay [1], 0.144 µM.
`COc1ccc2c(c1)C(=O)/C(=C/c1ccc(O)c(O)c1)C2=O` returned an IC50 in assay [1] of 1.5 µM.
The same measure, in the same setting: to `O=C1/C(=C/c2cc(Cl)c(O)c(Cl)c2)C(=O)c2c1cccc2[N+](=O)[O-]` belongs 1.4 µM; to `O=C1C(=Cc2ccc(O)c(O)c2)C(=O)c2ccccc21`, 5 µM; to `COc1cc2c(cc1OC)C(=O)C(=Cc1cc(Br)c(O)c(Br)c1)C2=O`, 0.11 µM.
Same read-out and setting: to `O=C1/C(=C/c2ccc(O)c(O)c2)C(=O)c2c1cccc2[N+](=O)[O-]` belongs 5 µM.
Turning to `Nc1ccc2c(c1)C(=O)/C(=C/c1cc(Br)c(O)c(Br)c1)C2=O`, the IC50 was 8 µM in assay [2], 0.46 µM in assay [3] and 0.032 µM in assay [1].
Turning to `Nc1ccc2c(c1)C(=O)/C(=C/c1cc(Cl)c(O)c(Cl)c1)C2=O`, the IC50 in assay [2] was determined as 5 µM; in assay [3] it was 3.5 µM; in assay [1], 0.102 µM.
In assay [1], `Nc1ccc2c(c1)C/C(=C\c1cc(Br)c(O)c(Br)c1)C2=O` displayed an IC50 of 5 µM.
